Reference: PMC10363532, “Xanthone synthetic derivatives with high anticandidal activity and positive mycostatic selectivity index values” (Scientific Reports, 2023)

Target: T1, yeast topoisomerase II (yTOPO II) (Saccharomyces cerevisiae, UniProt P06786)
T1 construct: gene TOP2; purified enzyme from the Inspiralis yeast topoisomerase II relaxation assay kit
T1 sequence (P06786 1-1428): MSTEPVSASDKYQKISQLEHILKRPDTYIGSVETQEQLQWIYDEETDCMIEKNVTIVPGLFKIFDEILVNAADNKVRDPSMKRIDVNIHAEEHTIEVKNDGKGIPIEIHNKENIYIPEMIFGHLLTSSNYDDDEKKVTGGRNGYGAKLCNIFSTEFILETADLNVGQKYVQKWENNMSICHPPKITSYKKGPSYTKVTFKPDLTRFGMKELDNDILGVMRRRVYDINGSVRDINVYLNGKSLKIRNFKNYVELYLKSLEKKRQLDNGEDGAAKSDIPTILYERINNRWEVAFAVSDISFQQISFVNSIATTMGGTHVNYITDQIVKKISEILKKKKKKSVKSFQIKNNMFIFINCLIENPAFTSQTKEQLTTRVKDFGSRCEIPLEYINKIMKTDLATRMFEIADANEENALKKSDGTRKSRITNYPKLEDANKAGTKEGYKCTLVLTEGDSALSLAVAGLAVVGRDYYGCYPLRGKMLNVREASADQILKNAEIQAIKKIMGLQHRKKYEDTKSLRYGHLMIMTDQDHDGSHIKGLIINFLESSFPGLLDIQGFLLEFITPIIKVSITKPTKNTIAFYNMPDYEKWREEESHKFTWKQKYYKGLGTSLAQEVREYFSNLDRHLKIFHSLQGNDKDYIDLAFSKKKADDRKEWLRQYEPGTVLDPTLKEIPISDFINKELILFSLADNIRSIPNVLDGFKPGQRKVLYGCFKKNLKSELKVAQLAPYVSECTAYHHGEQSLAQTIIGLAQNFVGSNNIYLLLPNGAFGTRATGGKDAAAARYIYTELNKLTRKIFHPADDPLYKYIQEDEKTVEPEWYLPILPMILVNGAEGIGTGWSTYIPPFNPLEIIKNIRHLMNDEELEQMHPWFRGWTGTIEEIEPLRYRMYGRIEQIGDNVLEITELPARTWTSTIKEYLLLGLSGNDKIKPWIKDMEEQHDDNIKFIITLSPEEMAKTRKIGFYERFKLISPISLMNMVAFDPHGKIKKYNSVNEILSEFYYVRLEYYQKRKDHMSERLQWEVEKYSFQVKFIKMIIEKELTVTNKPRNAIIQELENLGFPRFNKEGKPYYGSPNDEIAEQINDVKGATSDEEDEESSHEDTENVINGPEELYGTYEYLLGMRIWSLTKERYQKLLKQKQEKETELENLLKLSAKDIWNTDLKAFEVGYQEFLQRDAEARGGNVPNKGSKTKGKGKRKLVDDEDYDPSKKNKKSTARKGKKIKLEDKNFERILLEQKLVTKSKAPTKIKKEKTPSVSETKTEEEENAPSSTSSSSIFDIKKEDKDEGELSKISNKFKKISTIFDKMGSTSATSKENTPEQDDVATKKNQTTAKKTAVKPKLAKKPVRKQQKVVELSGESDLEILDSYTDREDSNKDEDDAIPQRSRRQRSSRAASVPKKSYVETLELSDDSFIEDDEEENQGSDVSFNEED
Experiment: plasmid DNA relaxation assay, gel densitometry
Assay type: biochemical
Conditions: for Complete inhibition: supercoiled pBR322 as DNA substrate
Excerpt: plasmid DNA relaxation assay, gel densitometry on yeast topoisomerase II (yTOPO II)

Row | IC50 [µM] | SMILES | other results
1 |  | O=c1c2cc3ccccc3cc2oc2c([N+](=O)[O-])ccc(NCCN3CCCC3)c12 [compound 9, 9] | Complete inhibition (highest concentration limited by solubility): > 50 µM
2 |  | CCN(CC)CCn1nc2c3c(c([N+](=O)[O-])ccc31)Oc1cc3ccccc3cc1-2 [compound 13, 13] | Complete inhibition: > 150 µM
3 | 5.86 ± 1.07 | CN1CCN(CCCNc2ccc([N+](=O)[O-])c3oc4cc5ccccc5cc4c(=O)c23)CC1 [compound 42, 1-((3-(4-methylpiperazin-1-yl)propyl)amino)-4-nitro-12H-benzo[b]xanthen-12-one] | 
4 | 5.36 ± 1.22 | O=c1c2cc3ccccc3cc2oc2c([N+](=O)[O-])ccc(NCCN3CCOCC3)c12 [compound 44, 1-((2-morpholinoethyl)amino)-4-nitro-12H-benzo[b]xanthen-12-one] | 
